# In PubChem BioAssay AID2060497 (Molecular Pharmacology Branch, DTP, NCI, 2025):
# Where “and” joins values, the source holds several entries; their conditions need not be identical. Equal entries are not always repeated.
# Test system: 317291-083-R-J1-PDC complex spheroids, viability
# Experiment: Anticancer human tumor 317291-083-R-J1-PDC patient-derived soft tissue sarcoma cell line growth inhibition [GQUAD]
# Conditions: for viability, T/C: stronger effect = lower value
# From the text: DNA G-quadruplex Stabilizer Agents in Combinations in Complex Spheroids
# A high-throughput screen of multi-cell type tumor spheroids was designed to identify active combinations of DNA G-quadruplex stabilizer agents and targeted small molecules. Complex spheroids include a stromal component modeled by human endothelial cells (HUVEC) and fibroblasts modeled by human mesenchymal stem cells (MSCs). The concentration ranges selected for each drug and investigational agent were based upon clinically achievable concentrations if the clinical Cmax of the agent was known.
# Compounds. The drugs and investigational agents: pidnarulex (CX-5461; NSC782164), APTO-253 (NSC789042), BRACO-19 (NSC847499), peposertib (NSC802822), ceralasertib (NSC780249), elimusertib (NSC800525), camonsertib (NSC841442), AZD-1390 (NSC803789), olaparib (NSC753686), talazoparib (NSC767125), ART-558 (NSC835418), sotorasib (NSC818433), MRTX-1133 (NSC836407), SN-38 (NSC673596), topotecan (NSC609699), etoposide (NSC141540), doxorubicin (NSC123127), gemcitabine (NSC613327), 5-fluorouracil (NSC19893), paclitaxel (NSC125973), vemurafenib (NSC761431), panobinostat (NSC761190), R-306465 (JNJ-16241199; NSC773264), adavosertib (NSC754352), TP-3654 (NSC805149), carboplatin (NSC241240), KSQ-4279 (NSC840948), and staurosporine (NSC755774) were obtained from the National Cancer Institute (NCI) Developmental Therapeutics Program Chemical Repository (34). The FDA-approved anticancer drug set is available from the NCI Developmental Therapeutics Program. […] The stock solutions were prepared in dimethyl sulfoxide (DMSO, Sigma-Aldrich, St. Louis, MO, cat. D2650) at 800-fold the tested concentration and stored at -70 degrees C prior to their use. All drugs and investigational agents were tested over a range starting from a high concentration at or near the clinical Cmax and decreasing in half-log increments. If the clinical Cmax for an agent had not been determined, the highest concentration tested was 10 microM.
# 2.3 Cell Culture. All cells were maintained in an incubator at 37 degrees C and 5% CO2 with 95% humidity. The PDC lines were cultured according to standard operating procedures established by the NCI PDMR. All PDCs were thawed and cultured in Matrigel-coated flasks prepared with a working solution of 1X Ham's F-12 nutrient mix, without supplementation (Invitrogen, cat. 11765054), 100 U/mL penicillin-streptomycin (Invitrogen, cat. 15140122), and 2.5% Matrigel (Corning Inc., cat. 354248) for the first three passages. The 857933-349-R-J2-PDC line was cultured in 6C/Colon 1B media, which includes advanced DMEM/F-12 (Thermo Fisher Scientific, cat. 12634028), 10 mM HEPES (Thermo Fisher Scientific, cat. 15630080), 1X GlutaMAX supplement (Thermo Fisher Scientific, cat. 35050061), 0.1 mg/mL primocin (InvivoGen, cat. ant-pm-2), 10% defined fetal bovine serum, heat inactivated (HyClone Laboratories Inc., cat. SH30070.03HI), 50% L-WRN conditioned media (ATCC, cat. CRL-3276), 1.25 mM N-Acetyl-L-cysteine (Sigma-Aldrich, cat. A9165), 10 mM nicotinamide (Sigma-Aldrich, cat. N0636), 1X B-27 supplement (Thermo Fisher Scientific, cat. 17504044), 1X N-2 supplement (Thermo Fisher Scientific, cat. 17502048), 10 microM Y-27632 dihydrochloride (Tocris Bioscience, cat. 1254), and 50 ng/mL human EGF recombinant protein (Thermo Fisher Scientific, cat. PHG0311). The 485176-168-R4-J1-PDC line was cultured in Panc media, which includes all 6C/Colon 1B media components plus 100 ng/mL human FGF-10 (Thermo Fisher Scientific, cat. 100-26), 500 nM SB-431542 (Selleckchem, cat. S1067), and gastrin (Tocris, cat. 3006).
# […]
# 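Further: spheroids exposed to compounds for one week before readout.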
# 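Wherever viability, T/C is given: percent viability relative to DMSO vehicle wells taken as 100%.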
compound,measurement,setting,value
COc1cccc2c1C(=O)c1c(O)c3c(c(O)c1C2=O)CC(O)(C(=O)CO)CC3OC1CC(N)C(O)C(C)O1 (centres undefined),"viability, T/C",compound 0.0316 µM,77.5% and 82.5% and 86.8%
same,"viability, T/C",compound 0.1 µM,35% and 28.7% and 27.3%
same,"viability, T/C",compound 0.316 µM,20% and 26.3% and 22.3%
same,"viability, T/C",compound 1 µM,8.85% and 15.2% and 15.3%
same,"viability, T/C",compound 3.16 µM,3.09% and 0.8% and 0.76%
same,"viability, T/C",compound 10 µM,4.03% and 0.72% and 2.93%
same,IC50,curve of compound,68.4 nM and 71.5 nM and 69.3 nM
CN(C)c1ccc(Nc2c3ccc(NC(=O)CCN4CCCC4)cc3nc3cc(NC(=O)CCN4CCCC4)ccc23)cc1,"viability, T/C",compound 0.1 µM,99.5% [middle of 12 runs]
same,"viability, T/C",compound 10 µM,11.4% [middle of 11 runs]
Nc1ccn(C2OC(CO)C(O)C2(F)F)c(=O)n1 (centres undefined),"viability, T/C",compound 0.0316 µM,55.7% and 53.6% and 61.2%
same,"viability, T/C",compound 0.1 µM,16.2% and 24.2% and 38%
same,"viability, T/C",compound 0.316 µM,16.1% and 12.7% and 9.59%
same,"viability, T/C",compound 1 µM,13.7% and 10.9% and 8.17%
same,"viability, T/C",compound 3.16 µM,10.1% and 14.3% and 9.39%
same,"viability, T/C",compound 10 µM,9.89% and 13.5% and 8.25%
same,IC50,curve of compound,37.3 nM and 36.3 nM and 55.1 nM
CC1COCCN1c1cc(C2(O)CC3CCC(C2)O3)c2cnn(-c3ccn[nH]3)c2n1 (centres undefined),"viability, T/C",compound 0.0316 µM,57.9% and 71.5% and 44.9%
same,"viability, T/C",compound 0.1 µM,37.3% and 29.8% and 26.9%
same,"viability, T/C",compound 0.316 µM,14.3% and 11.5% and 14.8%
same,"viability, T/C",compound 1 µM,20.7% and 20.3% and 15.5%
same,"viability, T/C",compound 3.16 µM,14.6% and 11.3% and 12.4%
same,"viability, T/C",compound 10 µM,2.47% and 3.18% and 2.04%
same,IC50,curve of compound,46.9 nM and 56.9 nM and < 31.6 nM
C=CCn1c(=O)c2cnc(Nc3ccc(N4CCN(C)CC4)cc3)nc2n1-c1cccc(C(C)(C)O)n1,"viability, T/C",compound 0.0316 µM,76.4% and 96.2% and 111%
same,"viability, T/C",compound 0.1 µM,59.4% and 51.4% and 83.7%
same,"viability, T/C",compound 0.316 µM,26.6% (2×) and 41.3%
same,"viability, T/C",compound 1 µM,17.6% and 13.5% and 23.8%
same,"viability, T/C",compound 3.16 µM,8.54% and 7.89% and 17.9%
same,"viability, T/C",compound 10 µM,9.53% and 9.94% and 16.1%
same,IC50,curve of compound,138 nM and 108 nM and 253 nM
CCCS(=O)(=O)Nc1ccc(F)c(C(=O)c2c[nH]c3ncc(-c4ccc(Cl)cc4)cc23)c1F,"viability, T/C",compound 0.0316 µM,104% and 114% and 118%
same,"viability, T/C",compound 0.1 µM,97.3% and 110% and 95%
same,"viability, T/C",compound 0.316 µM,102% and 113% and 121%
same,"viability, T/C",compound 1 µM,86.6% and 83.1% and 87%
same,"viability, T/C",compound 3.16 µM,46.4% and 66% and 62.4%
same,"viability, T/C",compound 10 µM,12.2% and 13.6% and 14.5%
same,IC50,curve of compound,2840 nM and 4300 nM and 4140 nM
CC1COCCN1c1cc(C2(S(C)(=N)=O)CC2)nc(-c2ccnc3[nH]ccc23)n1 (centres undefined) + Cc1[nH]c2ccc(F)cc2c1-c1nc2c3cccnc3c3ncccc3c2[nH]1,IC50,"curve of first compound, second compound 0.0316 µM",1530 nM
same,IC50,"curve of first compound, second compound 0.1 µM",1320 nM
same,IC50,"curve of first compound, second compound 0.316 µM",1350 nM
same,IC50,"curve of first compound, second compound 1 µM",1210 nM
same,IC50,"curve of first compound, second compound 3.16 µM",792 nM
same,IC50,"curve of first compound, second compound 10 µM",613 nM
same,"viability, T/C","second compound 0.0316 µM, first compound 0.0316 µM",109%
same,"viability, T/C","second compound 0.0316 µM, first compound 0.1 µM",112%
same,"viability, T/C","second compound 0.0316 µM, first compound 0.316 µM",90.5%
same,"viability, T/C","second compound 0.0316 µM, first compound 1 µM",64%
same,"viability, T/C","second compound 0.0316 µM, first compound 3.16 µM",27.9%
same,"viability, T/C","second compound 0.0316 µM, first compound 10 µM",15.4%
same,"viability, T/C","second compound 0.1 µM, first compound 0.0316 µM",93.3%
same,"viability, T/C","second compound 0.1 µM, first compound 0.1 µM",93.9%
same,"viability, T/C","second compound 0.1 µM, first compound 0.316 µM",85.8%
same,"viability, T/C","second compound 0.1 µM, first compound 1 µM",57.7%
same,"viability, T/C","second compound 0.1 µM, first compound 3.16 µM",25.2%
same,"viability, T/C","second compound 0.1 µM, first compound 10 µM",13.2%
same,"viability, T/C","second compound 0.316 µM, first compound 0.0316 µM",91.5%
same,"viability, T/C","second compound 0.316 µM, first compound 0.1 µM",98.6%
same,"viability, T/C","second compound 0.316 µM, first compound 0.316 µM",88.7%
same,"viability, T/C","second compound 0.316 µM, first compound 1 µM",59%
same,"viability, T/C","second compound 0.316 µM, first compound 3.16 µM",24.3%
same,"viability, T/C","second compound 0.316 µM, first compound 10 µM",14.7%
same,"viability, T/C","second compound 1 µM, first compound 0.0316 µM",101%
same,"viability, T/C","second compound 1 µM, first compound 0.1 µM",97.5%
same,"viability, T/C","second compound 1 µM, first compound 0.316 µM",97.3%
same,"viability, T/C","second compound 1 µM, first compound 1 µM",54.8%
same,"viability, T/C","second compound 1 µM, first compound 3.16 µM",22.1%
same,"viability, T/C","second compound 1 µM, first compound 10 µM",11.3%
same,"viability, T/C","second compound 3.16 µM, first compound 0.0316 µM",84%
same,"viability, T/C","second compound 3.16 µM, first compound 0.1 µM",82.8%
same,"viability, T/C","second compound 3.16 µM, first compound 0.316 µM",78%
same,"viability, T/C","second compound 3.16 µM, first compound 1 µM",42.5%
same,"viability, T/C","second compound 3.16 µM, first compound 3.16 µM",17.7%
same,"viability, T/C","second compound 3.16 µM, first compound 10 µM",11%
same,"viability, T/C","second compound 10 µM, first compound 0.0316 µM",53%
same,"viability, T/C","second compound 10 µM, first compound 0.1 µM",61.5%
same,"viability, T/C","second compound 10 µM, first compound 0.316 µM",86.4%
same,"viability, T/C","second compound 10 µM, first compound 1 µM",37.4%
same,"viability, T/C","second compound 10 µM, first compound 3.16 µM",16.8%
same,"viability, T/C","second compound 10 µM, first compound 10 µM",8.56%
